# PubChem BioAssay AID1259407 (Chemical Carcinogenesis Research Information System (CCRIS), 2018)
# Active and inactive are the calls of the source. The rule behind the calls is not given here.
# Tested on: CCRIS mutagenicity, Ames/micronucleus/aberration tests
# Test: CCRIS mutagenicity studies
# [1] = Test System: AMES SALMONELLA TYPHIMURIUM, Strain/Indicator: TA98, Metabolic Activation: NONE, Method: PREINCUBATION
# [2] = Test System: AMES SALMONELLA TYPHIMURIUM, Strain/Indicator: TA100, Metabolic Activation: NONE, Method: PREINCUBATION
# [3] = Test System: AMES SALMONELLA TYPHIMURIUM, Strain/Indicator: TA1535, Metabolic Activation: NONE, Method: PREINCUBATION
# [4] = Test System: AMES SALMONELLA TYPHIMURIUM, Strain/Indicator: TA1537, Metabolic Activation: NONE, Method: PREINCUBATION
# [5] = Test System: AMES SALMONELLA TYPHIMURIUM, Strain/Indicator: TA98, Metabolic Activation: NONE, Method: STANDARD PLATE
# [6] = Test System: AMES SALMONELLA TYPHIMURIUM, Strain/Indicator: TA98, Metabolic Activation: RAT, LIVER, S-9, AROCLOR 1254, Method: STANDARD PLATE
# [7] = Test System: AMES SALMONELLA TYPHIMURIUM, Strain/Indicator: TA100, Metabolic Activation: NONE, Method: STANDARD PLATE
# [8] = Test System: AMES SALMONELLA TYPHIMURIUM, Strain/Indicator: TA1537, Metabolic Activation: NONE, Method: STANDARD PLATE
structure (smiles),measurement,setting,value
NC(N)=NC(=O)c1nc(Cl)c(N)nc1N,mutagenic call,"Test System: AMES SALMONELLA TYPHIMURIUM, Strain/Indicator: TA97, Metabolic Activation: HAMSTER, LIVER, S-9, AROCLOR 1254 (5, 10 OR 30%), Method: PREINCUBATION",inactive; negative
same,mutagenic call,"Test System: AMES SALMONELLA TYPHIMURIUM, Strain/Indicator: TA97, Metabolic Activation: NONE, Method: PREINCUBATION",inactive; negative
same,mutagenic call,"Test System: AMES SALMONELLA TYPHIMURIUM, Strain/Indicator: TA97, Metabolic Activation: RAT, LIVER, S-9, AROCLOR 1254 (5, 10 OR 30%), Method: PREINCUBATION",inactive; negative
same,mutagenic call,"Test System: AMES SALMONELLA TYPHIMURIUM, Strain/Indicator: TA98, Metabolic Activation: HAMSTER, LIVER, S-9, AROCLOR 1254 (30%), Method: PREINCUBATION",inactive; negative
same,mutagenic call,[1],inactive; negative
same,mutagenic call,"Test System: AMES SALMONELLA TYPHIMURIUM, Strain/Indicator: TA98, Metabolic Activation: RAT, LIVER, S-9, AROCLOR 1254 (30%), Method: PREINCUBATION",inactive; negative
same,mutagenic call,"Test System: AMES SALMONELLA TYPHIMURIUM, Strain/Indicator: TA100, Metabolic Activation: HAMSTER, LIVER, S-9, AROCLOR 1254 (30%), Method: PREINCUBATION",inactive; negative
same,mutagenic call,[2],inactive; negative
same,mutagenic call,"Test System: AMES SALMONELLA TYPHIMURIUM, Strain/Indicator: TA100, Metabolic Activation: RAT, LIVER, S-9, AROCLOR 1254 (30%), Method: PREINCUBATION",inactive; negative
same,mutagenic call,"Test System: AMES SALMONELLA TYPHIMURIUM, Strain/Indicator: TA1535, Metabolic Activation: HAMSTER, LIVER, S-9, AROCLOR 1254 (30%), Method: PREINCUBATION",inactive; negative
same,mutagenic call,[3],inactive; negative
same,mutagenic call,"Test System: AMES SALMONELLA TYPHIMURIUM, Strain/Indicator: TA1535, Metabolic Activation: RAT, LIVER, S-9, AROCLOR 1254 (30%), Method: PREINCUBATION",inactive; negative
same,mutagenic call,"Test System: AMES SALMONELLA TYPHIMURIUM, Strain/Indicator: TA1537, Metabolic Activation: HAMSTER, LIVER, S-9, AROCLOR 1254 (30%), Method: PREINCUBATION",active; positive
same,mutagenic call,[4],active; positive
same,mutagenic call,"Test System: AMES SALMONELLA TYPHIMURIUM, Strain/Indicator: TA1537, Metabolic Activation: RAT, LIVER, S-9, AROCLOR 1254 (30%), Method: PREINCUBATION",active; positive
ClCc1ccncc1,mutagenic call,"Test System: AMES SALMONELLA TYPHIMURIUM, Strain/Indicator: TA97, Metabolic Activation: NONE, Method: STANDARD PLATE",inactive; negative
same,mutagenic call,"Test System: AMES SALMONELLA TYPHIMURIUM, Strain/Indicator: TA97, Metabolic Activation: RAT, LIVER, S-9, AROCLOR 1254, Method: STANDARD PLATE",inactive; negative
same,mutagenic call,[5],inactive; negative
same,mutagenic call,[6],inactive; negative
same,mutagenic call,[7],inactive; negative
same,mutagenic call,"Test System: AMES SALMONELLA TYPHIMURIUM, Strain/Indicator: TA102, Metabolic Activation: NONE, Method: STANDARD PLATE",inactive; negative
same,mutagenic call,"Test System: AMES SALMONELLA TYPHIMURIUM, Strain/Indicator: TA102, Metabolic Activation: RAT, LIVER, S-9, AROCLOR 1254, Method: STANDARD PLATE",inactive; negative
Cn1c(N)nc2cc(C#N)ccc21,mutagenic call,"Test System: AMES SALMONELLA TYPHIMURIUM, Strain/Indicator: TA98, Metabolic Activation: RAT, LIVER, S-9, AROCLOR 1254, Method: PREINCUBATION",active; positive
same,mutagenic call,"Test System: AMES SALMONELLA TYPHIMURIUM, Strain/Indicator: TA100, Metabolic Activation: RAT, LIVER, S-9, AROCLOR 1254, Method: PREINCUBATION",inactive; negative
CC/C(=C(/c1ccc(OCCN(C)C)cc1)c1ccc(OP(=O)(O)O)cc1)c1ccc(C(C)C)cc1,mutagenic call,[1],inactive; negative
same,mutagenic call,"Test System: AMES SALMONELLA TYPHIMURIUM, Strain/Indicator: TA98, Metabolic Activation: RAT, LIVER, S-9, Method: PREINCUBATION",inactive; negative
same,mutagenic call,[2],inactive; negative
same,mutagenic call,"Test System: AMES SALMONELLA TYPHIMURIUM, Strain/Indicator: TA100, Metabolic Activation: RAT, LIVER, S-9, Method: PREINCUBATION",inactive; negative
same,mutagenic call,[3],inactive; negative
same,mutagenic call,"Test System: AMES SALMONELLA TYPHIMURIUM, Strain/Indicator: TA1535, Metabolic Activation: RAT, LIVER, S-9, Method: PREINCUBATION",inactive; negative
same,mutagenic call,[4],inactive; negative
same,mutagenic call,"Test System: AMES SALMONELLA TYPHIMURIUM, Strain/Indicator: TA1537, Metabolic Activation: RAT, LIVER, S-9, Method: PREINCUBATION",inactive; negative
same,mutagenic call,"Test System: E. COLI, Strain/Indicator: WP2 UVRA, Metabolic Activation: NONE, Method: PREINCUBATION",inactive; negative
same,mutagenic call,"Test System: E. COLI, Strain/Indicator: WP2 UVRA, Metabolic Activation: RAT, LIVER, S-9, Method: PREINCUBATION",inactive; negative
Cc1ccc(C(=O)n2ncc(Cl)c(Cl)c2=O)cc1,mutagenic call,[5],inactive; negative
same,mutagenic call,[6],inactive; negative
same,mutagenic call,[7],inactive; negative
same,mutagenic call,"Test System: AMES SALMONELLA TYPHIMURIUM, Strain/Indicator: TA100, Metabolic Activation: RAT, LIVER, S-9, AROCLOR 1254, Method: STANDARD PLATE",inactive; negative
same,mutagenic call,"Test System: AMES SALMONELLA TYPHIMURIUM, Strain/Indicator: TA1535, Metabolic Activation: NONE, Method: STANDARD PLATE",inactive; negative
same,mutagenic call,"Test System: AMES SALMONELLA TYPHIMURIUM, Strain/Indicator: TA1535, Metabolic Activation: RAT, LIVER, S-9, AROCLOR 1254, Method: STANDARD PLATE",inactive; negative
same,mutagenic call,[8],inactive; negative
same,mutagenic call,"Test System: AMES SALMONELLA TYPHIMURIUM, Strain/Indicator: TA1537, Metabolic Activation: RAT, LIVER, S-9, AROCLOR 1254, Method: STANDARD PLATE",inactive; negative
CCN(CC)CCNc1ccc2ncn3c4ccc(O)cc4c(=O)c1c23,mutagenic call,[8],active; positive
same,mutagenic call,"Test System: AMES SALMONELLA TYPHIMURIUM, Strain/Indicator: TA1537, Metabolic Activation: S-9, Method: STANDARD PLATE",active; positive
same,mutagenic call,"Test System: CHINESE HAMSTER V-79, Strain/Indicator: V-79 (HGPRT)/6-THIOGUANINE, Metabolic Activation: NONE",active; positive
